Assays:
Assay type in all cases: functional, cell-based
A-375 = experiment: Antiproliferative activity against human A375 cells after 72 hrs by MTT assay; details: A-375, 72 h
PANC-1 = experiment: Antiproliferative activity against human PANC1 cells after 72 hrs by MTT assay; details: PANC-1, 72 h
ASPC1 = experiment: Antiproliferative activity against human AsPC1 cells after 72 hrs by MTT assay; details: ASPC1, 72 h
[1] = Antiproliferative activity against human WM35 cells after 72 hrs by MTT assay; details: WM35, 72 h
HL-60 = experiment: Antiproliferative activity against human HL60 cells after 72 hrs by MTT assay; details: HL-60, 72 h

IC50 (A-375): 0.2 nM | IC50 (PANC-1): 1.1 nM | IC50 (ASPC1): 0.7 nM | IC50 (HL-60): 0.1 nM
Structure (SMILES): COc1ccc(C(=O)O[C@H]2[C@H](O[C@@H]3[C@@H](O)[C@H](O[C@H]4C[C@H]5[C@@H]6CC=C7C[C@@H](OC(=O)CCCCCCCNC(=O)CCCC[C@@H]8SC[C@@H]9NC(=O)N[C@@H]98)CC[C@]7(C)[C@H]6CC[C@]5(C)[C@@]4(O)[C@H](C)C(=O)CCC(C)C)OC[C@@H]3O)OC[C@@H](O)[C@@H]2O)cc1
IC50 [1]: 0.2 nM
